Assay [1] concerns the target T1, α2β2 nAChR subtype (Rattus norvegicus, UniProt P12389+P12390).
T1 construct: expressed in transfected cells
Briefly: biochemical. Format: binding. An excerpt: (§1) In order to assess the steric and hydropathic effects of the C-5 substituents of the pyridine on the binding affinity and subtype-selectivity at neuronal nicotinic acetylcholine receptors. […] The binding affinity ratios for a ligand, calculated from its affinities at an α subunit paired with either the β2 osubunit or the β4 subunit, represents a measure of the selectivity of that ligand with regard to the β subunits.

For assay [2], the target named is T2, α2β4 nAChR subtype (Rattus norvegicus, UniProt P12389+P12392).
T2 construct: expressed in transfected cells
T2 sequence (P12389 28-511): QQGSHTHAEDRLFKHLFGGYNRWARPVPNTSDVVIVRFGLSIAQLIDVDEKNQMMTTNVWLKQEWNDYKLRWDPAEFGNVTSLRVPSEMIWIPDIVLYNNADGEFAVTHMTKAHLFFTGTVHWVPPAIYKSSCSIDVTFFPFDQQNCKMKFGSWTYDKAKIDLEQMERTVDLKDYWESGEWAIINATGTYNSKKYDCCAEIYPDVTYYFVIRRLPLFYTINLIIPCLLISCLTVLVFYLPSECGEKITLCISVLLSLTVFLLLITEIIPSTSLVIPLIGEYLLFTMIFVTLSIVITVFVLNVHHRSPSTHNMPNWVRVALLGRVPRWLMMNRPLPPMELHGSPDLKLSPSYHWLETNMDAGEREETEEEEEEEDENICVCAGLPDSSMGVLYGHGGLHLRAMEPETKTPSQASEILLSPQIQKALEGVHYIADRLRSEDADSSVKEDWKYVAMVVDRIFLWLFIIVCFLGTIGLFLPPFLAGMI
T2 sequence (P12392 21-495): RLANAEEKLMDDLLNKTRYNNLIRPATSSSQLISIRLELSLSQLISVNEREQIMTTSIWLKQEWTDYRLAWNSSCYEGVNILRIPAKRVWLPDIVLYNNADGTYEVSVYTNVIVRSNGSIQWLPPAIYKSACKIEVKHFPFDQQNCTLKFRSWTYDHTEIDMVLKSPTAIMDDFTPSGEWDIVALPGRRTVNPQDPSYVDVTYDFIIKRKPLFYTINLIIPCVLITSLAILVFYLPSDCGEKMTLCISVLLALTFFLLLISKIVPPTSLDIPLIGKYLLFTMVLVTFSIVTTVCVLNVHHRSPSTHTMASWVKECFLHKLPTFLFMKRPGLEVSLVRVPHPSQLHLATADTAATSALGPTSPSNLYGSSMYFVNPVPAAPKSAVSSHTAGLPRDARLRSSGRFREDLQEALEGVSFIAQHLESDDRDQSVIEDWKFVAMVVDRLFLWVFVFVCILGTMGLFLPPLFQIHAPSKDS
The assay can be described thus: biochemical. Format: binding.
Text: as §1

Assay [3] addresses T3, α3β2 nAChR subtype (Rattus norvegicus, UniProt P04757+P12390).
T3 construct: expressed in transfected cells
The assay can be described thus: biochemical. The class given is binding.
Text: as §1

In assay [4] the target is T4, α3β4 nAChR subtype (Rattus norvegicus, UniProt P04757+P12392).
T4 construct: expressed in transfected cells
T4 sequence (P04757 26-499): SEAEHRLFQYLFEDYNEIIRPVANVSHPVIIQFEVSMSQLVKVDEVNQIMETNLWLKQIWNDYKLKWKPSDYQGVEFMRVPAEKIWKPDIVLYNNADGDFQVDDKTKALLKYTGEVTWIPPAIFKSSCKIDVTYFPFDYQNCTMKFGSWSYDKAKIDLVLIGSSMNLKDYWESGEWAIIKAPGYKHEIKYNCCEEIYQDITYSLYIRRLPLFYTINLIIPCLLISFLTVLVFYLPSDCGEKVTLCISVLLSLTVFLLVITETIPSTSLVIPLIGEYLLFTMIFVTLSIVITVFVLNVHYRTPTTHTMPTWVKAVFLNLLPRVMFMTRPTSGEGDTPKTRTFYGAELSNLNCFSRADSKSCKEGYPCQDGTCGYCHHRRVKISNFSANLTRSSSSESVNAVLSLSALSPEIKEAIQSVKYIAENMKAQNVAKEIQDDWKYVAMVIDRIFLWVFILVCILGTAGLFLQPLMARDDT
T4 sequence (P12392 21-495): as the sequence (P12392 21-495) above
The assay can be described thus: biochemical. Format: binding.
Text: as §1

In assay [5] the target is T5, α4β2 nAChR subtype (Rattus norvegicus, UniProt P09483+P12390).
T5 construct: expressed in transfected cells
T5 sequence (P12390 25-500): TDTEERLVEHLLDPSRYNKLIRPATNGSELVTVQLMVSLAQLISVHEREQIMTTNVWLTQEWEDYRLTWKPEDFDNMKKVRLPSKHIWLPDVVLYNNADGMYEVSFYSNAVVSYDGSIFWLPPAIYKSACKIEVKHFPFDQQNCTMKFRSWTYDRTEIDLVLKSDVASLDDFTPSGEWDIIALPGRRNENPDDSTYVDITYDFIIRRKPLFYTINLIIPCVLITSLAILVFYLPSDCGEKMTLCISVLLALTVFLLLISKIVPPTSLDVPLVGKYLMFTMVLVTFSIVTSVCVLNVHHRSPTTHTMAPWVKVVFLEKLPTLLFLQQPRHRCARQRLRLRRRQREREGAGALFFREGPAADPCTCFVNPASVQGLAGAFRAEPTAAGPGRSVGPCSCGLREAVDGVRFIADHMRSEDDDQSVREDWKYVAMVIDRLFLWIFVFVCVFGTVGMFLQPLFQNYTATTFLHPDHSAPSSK
T5 sequence (P09483 31-630): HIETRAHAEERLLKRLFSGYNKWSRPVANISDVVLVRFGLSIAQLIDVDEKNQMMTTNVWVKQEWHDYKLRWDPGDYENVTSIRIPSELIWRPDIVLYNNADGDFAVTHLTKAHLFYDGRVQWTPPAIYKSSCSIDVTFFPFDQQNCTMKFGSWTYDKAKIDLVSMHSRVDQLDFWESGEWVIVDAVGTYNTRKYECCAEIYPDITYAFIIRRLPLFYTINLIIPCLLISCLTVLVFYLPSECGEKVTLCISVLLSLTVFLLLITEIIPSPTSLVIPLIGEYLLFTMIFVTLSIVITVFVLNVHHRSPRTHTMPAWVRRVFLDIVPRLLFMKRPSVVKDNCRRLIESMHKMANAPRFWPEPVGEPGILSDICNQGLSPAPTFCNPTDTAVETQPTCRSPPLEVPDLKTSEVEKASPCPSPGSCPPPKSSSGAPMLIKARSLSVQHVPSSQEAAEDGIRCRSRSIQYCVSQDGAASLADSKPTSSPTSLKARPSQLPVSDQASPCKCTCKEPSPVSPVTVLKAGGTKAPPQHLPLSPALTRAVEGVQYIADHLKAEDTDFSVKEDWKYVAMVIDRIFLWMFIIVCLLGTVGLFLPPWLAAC
The assay can be described thus: biochemical. The class given is binding. Conditions: for more selective for α4β2 over α3β4 than the corresponding parent compounds 7, 8, and 2: text b210.
Text: as §1

Assay [6] has as its target T6, α4β4 nAChR subtype (Rattus norvegicus, UniProt P09483+P12392).
T6 construct: expressed in transfected cells
Briefly: biochemical. Format: binding.
Text: as §1

Assay [7] addresses T7, receptors in rat forebrain (mainly α4β2) (Rattus norvegicus, UniProt P09483+P12390).
T7 construct: from tissue; host or cells: rat forebrain homogenate
Briefly: biochemical. The class given is binding.

For assay [8], the system named is receptors in rat forebrain (mainly α4β2). Briefly: biochemical. The class given is binding. Conditions: Table 3; ratio of the corresponding Ki values.
Assay [9] addresses T7, receptors in rat forebrain (mainly α4β2). The class given is binding. The settings on record: Table 6, [3H]-EB 0.099 nM, 0.091 nM, n = 1.
For assay [10] the following is noted: background b17; approximate; cited from earlier work.
The mark [11] stands for this setting: Table 3, mean of 3 independent measurements, read-out: Ki α2β2.
[12] abbreviates: Table 3, mean of 3 independent measurements, read-out: Ki α2β4.
Where [13] appears, read: Table 3, mean of 3 independent measurements, read-out: Ki α3β2.
Where [14] appears, read: Table 3, mean of 3 independent measurements, read-out: Ki α3β4.
Setting [15] is: Table 3, mean of 3 independent measurements, read-out: Ki α4β2.
[16] abbreviates: Table 3, mean of 3 independent measurements, read-out: Ki α4β4.
Where [17] appears, read: Table 3, mean of 3 independent measurements, read-out: Ki Forebrain.
Where [18] appears, read: Table 5, rat nAChR subtypes, read-out: Ki α2β2.
[19] abbreviates: Table 6, [3H]-EB 0.099 nM, 0.091 nM, ligand 0.00197-100 μM, n = 1, read-out: Ki α2β2.
[20] abbreviates: Table 5, rat nAChR subtypes, read-out: Ki α2β4.
[21] abbreviates: Table 6, [3H]-EB 0.099 nM, 0.091 nM, ligand 0.00197-100 μM, n = 1, read-out: Ki α2β4.
Setting [22] is: Table 5, rat nAChR subtypes, read-out: Ki α3β2.
Where [23] appears, read: Table 6, [3H]-EB 0.099 nM, 0.091 nM, ligand 0.00197-100 μM, n = 1, read-out: Ki α3β2.
The mark [24] stands for this setting: Table 5, rat nAChR subtypes, read-out: Ki α3β4.
[25] abbreviates: Table 6, [3H]-EB 0.099 nM, 0.091 nM, ligand 0.00197-100 μM, n = 1, read-out: Ki α3β4.
[26] abbreviates: Table 5, rat nAChR subtypes, read-out: Ki α4β2.
[27] abbreviates: Table 6, [3H]-EB 0.099 nM, 0.091 nM, ligand 0.00197-100 μM, n = 1, read-out: Ki α4β2.
The mark [28] stands for this setting: Table 5, rat nAChR subtypes, read-out: Ki α4β4.
[29] abbreviates: Table 6, [3H]-EB 0.099 nM, 0.091 nM, ligand 0.00197-100 μM, n = 1, read-out: Ki α4β4.
[30] abbreviates: Table 5, *Rat forebrain, mainly α4β2, read-out: Ki α4β2*.

Read-outs that look alike come from different tables or passages of the source.

A word on the Ki: it is the dissociation constant of the complex between target and ligand, obtained from inhibition or displacement.

T7 sequence (P09483 31-630): as above
T7 sequence (P12390 25-500): as the sequence (P12390 25-500) above
T1 sequence (P12390 25-500): as above
T1 sequence (P12389 28-511): as the sequence (P12389 28-511) above
T3 sequence (P12390 25-500): as the sequence (P12390 25-500) above
T3 sequence (P04757 26-499): as the sequence (P04757 26-499) above
T6 sequence (P12392 21-495): as the sequence (P12392 21-495) above
T6 sequence (P09483 31-630): as the sequence (P09483 31-630) above

As for `OCCCCC#Cc1ccc(C2CC3CCC2N3)cn1` (centres unmarked) [Ligand 34], the Ki in assay [1] (Ki α2β2, Table 3, mean of 3 independent measurements) came out at 16.9 nM; in assay [2] (Ki α2β4, Table 3, mean of 3 independent measurements), 67.4 nM; in [3] (Ki α3β2, Table 3, mean of 3 independent measurements) it was 19.8 nM; in [4] (Ki α3β4, Table 3, mean of 3 independent measurements), 95.4 nM; in assay [5] (Ki α4β2, Table 3, mean of 3 independent measurements), 67.7 nM; in assay [6] (Ki α4β4, Table 3, mean of 3 independent measurements), 61.8 nM. This compound also showed a Ki in [7] (Ki Forebrain, Table 3, mean of 3 independent measurements) of 52 nM. The “folds lower binding affinities than epibatidine at the nAChRs” value in assay [5] (text b208) is recorded as 200-1000 folds. Moreover, the “subtype selectivity among the neuronal nAChRs” value in [5] (text b208) is “less than 6 fold”. In assay [8], the “Affinity ratio (α3β4/Forbrain)” value was 2.

With `OCCCCC#Cc1cncc(OC[C@@H]2CCCN2)c1` [Ligand 27], the Ki was 1.51 nM in [1] (setting [11]); 835 nM in [2] (setting [12]); 2.69 nM in assay [3] (setting [13]); 16100 nM in [4] (setting [14]); 0.665 nM in assay [5] (setting [15]); 778 nM in assay [6] (setting [16]). Also, the Ki in [7] (setting [17]) was found to be 1.15 nM. Further, the “more selective for α4β2 over α3β4 than the corresponding parent compounds 7, 8, and 2” value in assay [5] was 2 orders of magnitude. The “Affinity ratio (α3β4/Forbrain)” value in [8] is 14,000.

Regarding `C#Cc1cncc(OC[C@@H]2CCCN2C)c1` [Ligand 18, 5-(1-Ethynyl)-3-(1-methyl-2(S)-pyrrolidinylmethoxy)pyridine], the Ki in assay [1] (setting [18]) was 0.75 nM; in [1] (setting [19]), 0.749 nM; in assay [2] (setting [20]), 434 nM; in assay [2] (setting [21]), 434 nM; in [3] (setting [22]) it was 10.7 nM; in assay [3] (setting [23]), 10.7 nM. The Ki in assay [4] (setting [24]) worked out at 3080 nM; in assay [4] (setting [25]) it was 3080 nM; in [5] (setting [26]) it was 1.02 nM; in assay [5] (setting [27]), 1.02 nM; in [6] (setting [28]), 473 nM; in assay [6] (setting [29]), 473 nM. In addition, the Ki in assay [7] (setting [30]) and in [9] was 3.65 nM throughout.

As to `Clc1ccc(C2CC3CCC2N3)cn1` (racemic) [Epibatidine, 2-exo-(2-Chloro-5-pyridyl)-7-azabicyclo[2.2.1]heptane], in assay [10], the “analgesic potency, times that of morphine” value was approximately 500 times.

Consider `CN1CCC[C@H]1COc1cncc(CCCCCCO)c1` [Ligand 19, 5-(6-Hydroxy-1-hexanyl)-3-(1-methyl-2(S) -pyrrolidinylmethoxy)pyridine], for which the Ki was 3.33 nM in [1] (setting [18]); 3.33 nM in assay [1] (setting [19]); 1150 nM in assay [2] (setting [20]); 1150 nM in [2] (setting [21]); 13.4 nM in assay [3] (setting [22]); 13.4 nM in assay [3] (setting [23]). Moreover, the Ki in assay [4] (setting [24]) came to 20000 nM; in [4] (setting [25]), 20000 nM; in assay [5] (setting [26]) it was 0.75 nM; in assay [5] (setting [27]), 0.754 nM; in [6] (setting [28]) it was 968 nM; in assay [6] (setting [29]), 968 nM. Further, the Ki in [7] (setting [30]) and in assay [9] was 5.39 nM throughout.

For the compound `CN1CCC[C@H]1COc1cncc(C#CCCCCO)c1` [Ligand 16, 5-(6-Hydroxy-1-hexynyl)-3-(1-methyl-2(S) -pyrrolidinylmethoxy)pyridine], the Ki was 2.87 nM in [1] (setting [18]); 2.87 nM in assay [1] (setting [19]); 3230 nM in assay [2] (setting [20]); 3230 nM in assay [2] (setting [21]); 12.6 nM in assay [3] (setting [22]); 12.6 nM in assay [3] (setting [23]). Further, the Ki in assay [4] (setting [24]) worked out at 40200 nM; in assay [4] (setting [25]), 40200 nM; in assay [5] (setting [26]), 0.81 nM; in [5] (setting [27]), 0.81 nM; in assay [6] (setting [28]), 1270 nM; in assay [6] (setting [29]), 1270 nM. The Ki in [7] (setting [30]) and in [9] was 3.56 nM each time.

As to `CN1CCC[C@H]1COc1cncc(C#CCCCCCCCCO)c1` [Ligand 17, 5-(10-Hydroxy-1-decynyl)-3-(1-methyl-2(S) -pyrrolidinylmethoxy)pyridine], the Ki in assay [1] (setting [18]) was determined as 26.8 nM; in assay [1] (setting [19]) it was 26.8 nM; in assay [2] (setting [20]), 7800 nM; in [2] (setting [21]), 7800 nM; in [3] (setting [22]), 52.1 nM; in assay [3] (setting [23]), 52.1 nM. For the same compound, the Ki worked out at 62700 nM in assay [4] (setting [24]); 62700 nM in assay [4] (setting [25]); 6.5 nM in assay [5] (setting [26]); 6.5 nM in assay [5] (setting [27]); 3560 nM in [6] (setting [28]); 3560 nM in assay [6] (setting [29]). In addition, the Ki in assay [7] (setting [30]) and in assay [9] was 21.7 nM each time.

Consider `OCCCCC#Cc1cncc(OC[C@@H]2CCN2)c1` [Ligand 26], for which the “selectivity at α4β2 vs ganglionic α3β4 receptors” value in assay [5] (text b206) is listed as 54,000 fold. In [5], the “more selective for α4β2 over α3β4 than the corresponding parent compounds 7, 8, and 2” value was 2 orders of magnitude. Further, the “Affinity ratio (α3β4/Forbrain)” value in assay [8] was 53,778.

On to `FCCCCC#Cc1cncc(OC[C@@H]2CCN2)c1` [Ligand 41], for which the “affinities for α4β2 nAChR subtype (in words)” value in [5] is “subnanomolar”. The “Affinity ratio (α3β4/Forbrain)” value in assay [8] was 15,166.

As for `CN1CCC[C@H]1COc1cncc(C#CC(C)(C)O)c1` [Ligand 15, 5-(3-Hydroxy-3-methyl-1-butynyl)-3-(1-methyl-2(S)pyrrolidinylmethoxy)pyridine], the Ki in [1] (setting [18]) was found to be 1.93 nM; in assay [1] (setting [19]), 1.93 nM; in assay [2] (setting [20]), 5890 nM; in assay [2] (setting [21]), 5890 nM; in assay [3] (setting [22]), 19.7 nM; in assay [3] (setting [23]) it was 19.7 nM. The Ki in [4] (setting [24]) is 32600 nM; in [4] (setting [25]) it was 32600 nM; in assay [5] (setting [26]) it was 1.34 nM; in [5] (setting [27]) it was 1.34 nM; in assay [6] (setting [28]) it was 5060 nM; in assay [6] (setting [29]), 5060 nM. Further, the Ki in [7] (setting [30]) and in [9] was 8.39 nM throughout.

As to `CN1CCC[C@H]1COc1cncc(C#CCO)c1` [Ligand 14, 5-(3-Hydroxy-1-propargyl)-3-(1-methyl-2(S)-pyrrolidinylmethoxy)pyridine], the Ki in [1] (setting [18]) came to 2.43 nM; in assay [1] (setting [19]), 2.43 nM; in assay [2] (setting [20]), 1880 nM; in [2] (setting [21]), 1880 nM; in assay [3] (setting [22]), 7.64 nM; in assay [3] (setting [23]), 7.64 nM. Also, the Ki in assay [4] (setting [24]) was determined as 18200 nM; in assay [4] (setting [25]) it was 18200 nM; in assay [5] (setting [26]) it was 0.954 nM; in assay [5] (setting [27]), 0.954 nM; in [6] (setting [28]) it was 1690 nM; in assay [6] (setting [29]), 1690 nM. The Ki in assay [7] (setting [30]) and in assay [9] was 3.16 nM each time.

Regarding `FCCCCC#Cc1cncc(OC[C@@H]2CCCN2)c1` [Ligand 42], the Ki in assay [1] (setting [11]) worked out at 3.5 nM; in assay [2] (setting [12]), 680 nM; in assay [3] (setting [13]), 5.27 nM; in [4] (setting [14]), 7580 nM; in [5] (setting [15]), 0.907 nM; in assay [6] (setting [16]), 721 nM. The Ki in [7] (setting [17]) worked out at 3.45 nM. Also, the “affinities for α4β2 nAChR subtype (in words)” value in assay [5] is reported as “subnanomolar”. In addition, in [8], the “Affinity ratio (α3β4/Forbrain)” value is given as 2,197.

`CCCCCc1cncc(C2CC3CCC2N3)c1` (centres unmarked) [ZW-95]: the Ki in [1] (Ki α2β2, Table 5, rat nAChR subtypes) was 0.323 nM; in assay [2] (Ki α2β4, Table 5, rat nAChR subtypes), 24.9 nM; in assay [3] (Ki α3β2, Table 5, rat nAChR subtypes), 0.165 nM; in assay [4] (Ki α3β4, Table 5, rat nAChR subtypes), 122 nM; in [5] (Ki α4β2, Table 5, rat nAChR subtypes), 0.151 nM; in assay [6] (Ki α4β4, Table 5, rat nAChR subtypes), 7.91 nM. The Ki in assay [7] (Ki α4β2*, Table 5, *Rat forebrain, mainly α4β2) was determined as 0.314 nM.
